Source: PMC12040969, “Design, synthesis, in silico studies, and apoptotic antiproliferative activity of novel thiazole-2-acetamide derivatives as tubulin polymerization inhibitors” (Frontiers in Chemistry, 2025)

Tests used:
pancreatic - MDAMB-231 = experiment: Antiproliferative assay (MTT) MDAMB-231; details: read-out: Antiproliferative activity IC50 ± SEM (µM) MDAMB-231; MDAMB-231, MTT
- MDAMB-231 = experiment: Antiproliferative assay (MTT) MDAMB-231
breast - MCF-7 = experiment: Antiproliferative assay (MTT) MCF-7
tubulin = experiment: Tubulin polymerization inhibition assay (Cytoskeleton kit); details: for Tub %inh: 30 min, YB-EGY run; for Tub K.Activity: EC = 120, YB-EGY run;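 on all read-outs here: Cell-free tubulin polymerization read by fluorescent reporter enhancement over a 30 min reaction, with the compound-free kit control taken as 100% activity and inhibition relative to it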
[1] = Cell viability assay (MTT), normal cells; type: cell-based; details: human, MCF-10A normal mammary gland epithelial cells, four-day incubation
[2] = system: four human cancer cell lines (HCT-116, PC-3, MCF-7, MDAMB-231); experiment: Antiproliferative assay, mean of four cell lines (GI50)
colon - HCT-116 = experiment: Antiproliferative assay (MTT) HCT-116
prostatic - PC-3 = experiment: Antiproliferative assay (MTT) PC-3

SMILES: Cc1nc(SCC(=O)Nc2nc(-c3ccc(Cl)cc3)cs2)sc1C(=O)/C=C/c1ccc(F)cc1 [Compound 10h, (E)-N-(4-(4-chlorophenyl)thiazol-2-yl)-2-((5-(3-(4-fluorophenyl)acryloyl)-4-methylthiazol-2-yl)thio)acetamide]
- IC50 (pancreatic - MDAMB-231): 15 ± 1.3 µM
- Average of Relative viability of cells (%) (- MDAMB-231; MDAMB-231, 1.56 µM): 100%
- Average of Relative viability of cells (%) (- MDAMB-231; MDAMB-231, 3.125 µM): 85.7%
- Average of Relative viability of cells (%) (- MDAMB-231; MDAMB-231, 6.25 µM): 68.5%
- Average of Relative viability of cells (%) (- MDAMB-231; MDAMB-231, 12.5 µM): 47.4%
- Average of Relative viability of cells (%) (- MDAMB-231; MDAMB-231, 25 µM): 37.1%
- Average of Relative viability of cells (%) (- MDAMB-231; MDAMB-231, 50 µM): 26.7%
- Average of Relative viability of cells (%) (- MDAMB-231; MDAMB-231, 100 µM): 21.6%
- Average of Relative viability of cells (%) (breast - MCF-7; MCF-7, 1.56 µM): 100%
- Average of Relative viability of cells (%) (breast - MCF-7; MCF-7, 3.125 µM): 94.8%
- Average of Relative viability of cells (%) (breast - MCF-7; MCF-7, 6.25 µM): 76.5%
- Average of Relative viability of cells (%) (breast - MCF-7; MCF-7, 12.5 µM): 53.9%
- Average of Relative viability of cells (%) (breast - MCF-7; MCF-7, 25 µM): 50.2%
- Average of Relative viability of cells (%) (breast - MCF-7; MCF-7, 50 µM): 37.1%
- Average of Relative viability of cells (%) (breast - MCF-7; MCF-7, 100 µM): 23.6%
- IC50 (breast - MCF-7; read-out: Antiproliferative activity IC50 ± SEM (µM) MCF-7, MCF-7, MTT): 24 ± 1.7 µM
- Tub %inh (tubulin; conc 0.1 (unit not given)): 9.85%
- Tub K.Activity (tubulin; conc 0.1 (unit not given)): 108.18
- Tub %inh (tubulin; conc 1 (unit not given)): 26.6%
- Tub K.Activity (tubulin; conc 1 (unit not given)): 88.132
- Tub %inh (tubulin; conc 10 (unit not given)): 44.8%
- Tub K.Activity (tubulin; conc 10 (unit not given)): 66.269
- Tub %inh (tubulin; conc 50 (unit not given)): 65.5%
- Tub K.Activity (tubulin; conc 50 (unit not given)): 41.405
- Tub %inh (tubulin; conc 100 (unit not given)): 84.5%
- Tub K.Activity (tubulin; conc 100 (unit not given)): 18.607
- IC50 (tubulin; read-out: Tubulin inhibition IC50 ± SEM, triplicate for each tested concentration): 7.95 ± 0.24 µM
- viability at 96 h, 50 µM [1]: 85%
- Reduced potency compared to doxorubicin (GI50) ([2]; GI50 ratio): at least 2.5 fold
- Reduced potency compared to sorafenib (GI50) ([2]; GI50 ratio): ≥ 1.5 fold
- IC50 ([2]; Homo sapiens, read-out: GI50 (average IC50)): 32 µM
- Average of Relative viability of cells (%) (colon - HCT-116; HCT-116, 1.56 µM): 100%
- Average of Relative viability of cells (%) (colon - HCT-116; HCT-116, 3.125 µM): 97.6%
- Average of Relative viability of cells (%) (colon - HCT-116; HCT-116, 6.25 µM): 79.5%
- Average of Relative viability of cells (%) (colon - HCT-116; HCT-116, 12.5 µM): 69.3%
- Average of Relative viability of cells (%) (colon - HCT-116; HCT-116, 25 µM): 52.8%
- Average of Relative viability of cells (%) (colon - HCT-116; HCT-116, 50 µM): 39.4%
- Average of Relative viability of cells (%) (colon - HCT-116; HCT-116, 100 µM): 20.2%
- IC50 (colon - HCT-116; read-out: Antiproliferative activity IC50 ± SEM (µM) HCT-116, HCT-116, MTT): 29 ± 1.9 µM
- Average of Relative viability of cells (%) (prostatic - PC-3; PC-3, 1.56 µM): 100%
- Average of Relative viability of cells (%) (prostatic - PC-3; PC-3, 3.125 µM): 100%
- Average of Relative viability of cells (%) (prostatic - PC-3; PC-3, 6.25 µM): 100%
- Average of Relative viability of cells (%) (prostatic - PC-3; PC-3, 12.5 µM): 93.5%
- Average of Relative viability of cells (%) (prostatic - PC-3; PC-3, 25 µM): 72.4%
- Average of Relative viability of cells (%) (prostatic - PC-3; PC-3, 50 µM): 55.8%
- Average of Relative viability of cells (%) (prostatic - PC-3; PC-3, 100 µM): 36.5%
- IC50 (prostatic - PC-3; read-out: Antiproliferative activity IC50 ± SEM (µM) PC-3, PC-3, MTT): 61 ± 3.5 µM
